From US9737505B2, “Prodrug of 1,1′-(1,6-dioxo-1,6-hexanediyl)bis-D-proline” (GlaxoSmithKline Intellectual Property Development Limited, priority 2014, dated 2017)
Like-named read-outs stand apart in the source and are kept apart here.

Experiments:
SAP [1] = molecular target: T1, SAP (Homo sapiens, UniProt P02743); settings: systemic amyloidosis patients, for as long as the drug was administered; cited from earlier work
T1 construct: Depletion of plasma SAP by CPHPC, from the normal 20-50 mg/L to <0.1 mg/L; host or cells: circulating SAP in plasma and CSF of patients

[2] = very low and variable; cited from earlier work
SAP [3] = molecular target: T1, SAP; settings: patients with Alzheimer's disease, cited from earlier work
CYP1A2 = molecular target: T2, CYP1A2 (Homo sapiens, UniProt P05177); assay: Cytochrome p450 inhibition assay (bactosomes, fluorogenic substrate ER); assay type: biochemical; settings: recombinant human CYP (Cypex bactosomes)
T2 construct: purchased Cypex; host or cells: bactosomes (bacterial membranes)
T2 sequence (P05177 1-516): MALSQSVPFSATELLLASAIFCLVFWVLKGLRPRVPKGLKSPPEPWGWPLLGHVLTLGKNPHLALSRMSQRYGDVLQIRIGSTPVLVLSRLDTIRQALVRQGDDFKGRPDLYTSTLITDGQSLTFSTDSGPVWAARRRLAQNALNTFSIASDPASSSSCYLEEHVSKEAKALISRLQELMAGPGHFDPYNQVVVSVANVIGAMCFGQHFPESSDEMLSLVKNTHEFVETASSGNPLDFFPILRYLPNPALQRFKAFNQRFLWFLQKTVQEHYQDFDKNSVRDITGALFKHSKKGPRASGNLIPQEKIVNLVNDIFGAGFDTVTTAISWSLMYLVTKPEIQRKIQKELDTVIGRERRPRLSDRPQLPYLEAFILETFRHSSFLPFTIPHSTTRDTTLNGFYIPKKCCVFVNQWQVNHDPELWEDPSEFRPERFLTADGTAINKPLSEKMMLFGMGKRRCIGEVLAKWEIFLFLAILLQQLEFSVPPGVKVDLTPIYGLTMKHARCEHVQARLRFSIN
Experimental: (§1) The assay was designed to evaluate inhibition on cytochrome P450 (CYP) 3A4, 2C9, 2C19, 1A2 and 2D6 enzymes from bactosomes source using fluorogenic substrates. Compound (compound of Formula (I) or Comparator Compound) was dissolved in methanol at 1.65 mM. Daughter solutions were prepared in methanol at 660, 264, 106, 42, 17, 6.8, 2.7, 1.1 and 0.43 μM. NADPH cofactor was prepared with Glucose-6-phosphate (7.8 mg), Glucose-6-phosphate dehydrogenase (6 units), NADP (1.7 mg) per 1 mL in NaHCO3 2%. Substrate preparation was as follows: • 7-Methoxy-4-triFluoromethyl Coumarin-3-Acetic acid ethyl ester (FCA): 12.5 mM in acetonitrile • EthoxyResorufin (ER): 0.05 mM in acetonitrile • 4-MethylaminoMethyl-7-Methoxy Coumarin (MMC): 2.5 mM in methanol • 3-Butyryl-7Methoxy Coumarin (BMC): 2.5 mM in DMSO • 7-BenzyloxyQuinoline (7BQ): 2.5 mM in acetonitrile • DiEthoxyFluorescein (DEF): 0.1 mM in acetonitrile Bactosomes (Cypex source) at the concentration of 10 mg of protein per ml were diluted in phosphate buffer 50 mM pH7.4: • 0.33 ml of bactosomes CYP2C9 with 23.8 ml of buffer and 0.11 ml of FCA • 0.33 ml of bactosomes CYP1A2 with 23.6 ml of buffer and 0.275 ml of ER • 0.33 ml of bactosomes CYP2D6 with 23.8 ml of buffer and 0.11 ml of MMC • 0.33 ml of bactosomes CYP2C19 with 23.8 ml of buffer and 0.11 ml of BMC • 0.33 ml of bactosomes CYP3[…] with 23.6 ml of buffer and 0.275 ml of 7BQ • 0.33 ml of bactosomes CYP3[…] with 23.6 ml of buffer and 0.275 ml of DEF Pre-Incubation consisted in mixing 5 μl of compound solution with 220 μl diluted bactosomes and warming it at 37° C. for 10 min. Incubation was started with the addition of 25 μl of NADPH. […]

CYP2C9 = molecular target: T3, CYP2C9 (Homo sapiens, UniProt P11712); assay: Cytochrome p450 inhibition assay (bactosomes, fluorogenic substrate FCA); assay type: biochemical; settings: recombinant human CYP (Cypex bactosomes)
T3 construct: purchased Cypex; host or cells: bactosomes (bacterial membranes)
Experimental: as §1

CYP3A4 = molecular target: T4, CYP3A4 (Homo sapiens, UniProt P08684); assay: Cytochrome p450 inhibition assay (bactosomes, fluorogenic substrates 7BQ and DEF); assay type: biochemical; settings: recombinant human CYP (Cypex bactosomes)
T4 construct: purchased Cypex; host or cells: bactosomes (bacterial membranes)
Experimental: The assay was designed to evaluate inhibition on cytochrome P450 (CYP) 3A4, 2C9, 2C19, 1A2 and 2D6 enzymes from bactosomes source using fluorogenic substrates. Compound (compound of Formula (I) or Comparator Compound) was dissolved in methanol at 1.65 mM. Daughter solutions were prepared in methanol at 660, 264, 106, 42, 17, 6.8, 2.7, 1.1 and 0.43 μM. NADPH cofactor was prepared with Glucose-6-phosphate (7.8 mg), Glucose-6-phosphate dehydrogenase (6 units), NADP (1.7 mg) per 1 mL in NaHCO3 2%. Substrate preparation was as follows: • 7-Methoxy-4-triFluoromethyl Coumarin-3-Acetic acid ethyl ester (FCA): 12.5 mM in acetonitrile • EthoxyResorufin (ER): 0.05 mM in acetonitrile • 4-MethylaminoMethyl-7-Methoxy Coumarin (MMC): 2.5 mM in methanol • 3-Butyryl-7Methoxy Coumarin (BMC): 2.5 mM in DMSO • 7-BenzyloxyQuinoline (7BQ): 2.5 mM in acetonitrile • DiEthoxyFluorescein (DEF): 0.1 mM in acetonitrile Bactosomes (Cypex source) at the concentration of 10 mg of protein per ml were diluted in phosphate buffer 50 mM pH7.4: • 0.33 ml of bactosomes CYP2C9 with 23.8 ml of buffer and 0.11 ml of FCA • 0.33 ml of bactosomes CYP1A2 with 23.6 ml of buffer and 0.275 ml of ER • 0.33 ml of bactosomes CYP2D6 with 23.8 ml of buffer and 0.11 ml of MMC • 0.33 ml of bactosomes CYP2C19 with 23.8 ml of buffer and 0.11 ml of BMC • 0.33 ml of bactosomes CYP3[…] with 23.6 ml of buffer and 0.275 ml of 7BQ • 0.33 ml of bactosomes CYP3[…] with 23.6 ml of buffer and 0.275 ml of DEF Pre-Incubation consisted in mixing 5 μl of compound solution with 220 μl diluted bactosomes and warming it at 37° C. for 10 min. Incubation was started with the addition of 25 μl of NADPH. Then fluorescence of substrate metabolite was read in a SAFIRE instrument (from Tecan) for 5 min: • FCA (2C9): Excitation at 410 nm and Emission at 510 nm • ER (1A2): Excitation at 530 nm and Emission at 590 nm • MMC (2D6): Excitation at 410 nm and Emission at 485 nm • BMC (2C19): Excitation at 410 nm and Emission at 465 nm • 7BQ (3A4H): Excitation at 410 nm and Emission at 530 nm • DEF (3A4L): Excitation at 485 nm and Emission at 530 nm Plotting of inhibition of substrate production against compound concentration allowed the determination of IC50 values.

CYP2D6 = molecular target: T5, CYP2D6 (Homo sapiens, UniProt P10635); assay: Cytochrome p450 inhibition assay (bactosomes, fluorogenic substrate MMC); assay type: biochemical; settings: recombinant human CYP (Cypex bactosomes)
T5 construct: purchased Cypex; host or cells: bactosomes (bacterial membranes)
Experimental: as §1

CYP2C19 = molecular target: T6, CYP2C19 (Homo sapiens, UniProt P33261); assay: Cytochrome p450 inhibition assay (bactosomes, fluorogenic substrate BMC); assay type: biochemical; settings: recombinant human CYP (Cypex bactosomes)
T6 construct: purchased Cypex; host or cells: bactosomes (bacterial membranes)
Experimental: as §1

T1 sequence (P02743 20-223): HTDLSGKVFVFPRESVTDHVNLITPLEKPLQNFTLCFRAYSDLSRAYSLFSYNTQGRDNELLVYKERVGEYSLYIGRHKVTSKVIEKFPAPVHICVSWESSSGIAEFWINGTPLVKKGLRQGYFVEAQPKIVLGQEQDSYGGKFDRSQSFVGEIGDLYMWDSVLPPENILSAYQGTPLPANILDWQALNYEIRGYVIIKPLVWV
T4 sequence (P08684 whole entry): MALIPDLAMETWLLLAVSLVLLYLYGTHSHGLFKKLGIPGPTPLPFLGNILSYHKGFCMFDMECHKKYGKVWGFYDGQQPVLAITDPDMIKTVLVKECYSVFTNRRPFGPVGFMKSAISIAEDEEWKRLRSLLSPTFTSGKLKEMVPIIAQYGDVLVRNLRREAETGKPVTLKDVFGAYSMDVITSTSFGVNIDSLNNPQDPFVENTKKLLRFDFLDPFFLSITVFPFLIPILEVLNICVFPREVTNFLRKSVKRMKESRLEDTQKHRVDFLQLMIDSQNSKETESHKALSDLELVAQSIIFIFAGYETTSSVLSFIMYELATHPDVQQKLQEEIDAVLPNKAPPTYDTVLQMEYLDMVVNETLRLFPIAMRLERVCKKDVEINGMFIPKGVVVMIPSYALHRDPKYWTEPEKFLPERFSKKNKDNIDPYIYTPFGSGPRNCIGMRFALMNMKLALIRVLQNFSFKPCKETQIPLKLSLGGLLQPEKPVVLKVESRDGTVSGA
T5 sequence (P10635 whole entry): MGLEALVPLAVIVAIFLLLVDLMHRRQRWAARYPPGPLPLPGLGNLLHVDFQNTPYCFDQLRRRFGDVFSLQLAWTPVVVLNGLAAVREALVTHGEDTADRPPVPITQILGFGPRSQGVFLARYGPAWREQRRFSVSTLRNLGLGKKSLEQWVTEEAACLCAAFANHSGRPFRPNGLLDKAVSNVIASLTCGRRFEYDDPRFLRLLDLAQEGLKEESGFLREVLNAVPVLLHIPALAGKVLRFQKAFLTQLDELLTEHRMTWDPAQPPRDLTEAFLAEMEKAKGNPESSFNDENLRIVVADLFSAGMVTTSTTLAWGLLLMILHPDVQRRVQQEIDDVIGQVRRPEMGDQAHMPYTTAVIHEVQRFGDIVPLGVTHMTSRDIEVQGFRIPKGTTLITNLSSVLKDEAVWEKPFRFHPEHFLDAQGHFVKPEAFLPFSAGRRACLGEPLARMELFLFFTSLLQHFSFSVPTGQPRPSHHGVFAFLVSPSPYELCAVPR
T3 sequence (P11712 whole entry): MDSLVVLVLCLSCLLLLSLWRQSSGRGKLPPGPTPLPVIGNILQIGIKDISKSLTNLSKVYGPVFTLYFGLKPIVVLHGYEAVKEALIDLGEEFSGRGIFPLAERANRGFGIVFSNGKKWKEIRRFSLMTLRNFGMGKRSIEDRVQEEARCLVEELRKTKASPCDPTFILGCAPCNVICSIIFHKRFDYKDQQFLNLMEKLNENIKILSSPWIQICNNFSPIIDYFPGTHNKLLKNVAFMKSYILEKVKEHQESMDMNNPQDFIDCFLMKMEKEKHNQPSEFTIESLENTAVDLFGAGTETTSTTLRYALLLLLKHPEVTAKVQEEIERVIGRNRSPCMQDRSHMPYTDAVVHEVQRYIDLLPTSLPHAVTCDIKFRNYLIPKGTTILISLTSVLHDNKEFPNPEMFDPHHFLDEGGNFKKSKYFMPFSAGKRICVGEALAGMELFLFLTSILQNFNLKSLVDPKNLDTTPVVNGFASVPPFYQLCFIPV
T6 sequence (P33261 whole entry): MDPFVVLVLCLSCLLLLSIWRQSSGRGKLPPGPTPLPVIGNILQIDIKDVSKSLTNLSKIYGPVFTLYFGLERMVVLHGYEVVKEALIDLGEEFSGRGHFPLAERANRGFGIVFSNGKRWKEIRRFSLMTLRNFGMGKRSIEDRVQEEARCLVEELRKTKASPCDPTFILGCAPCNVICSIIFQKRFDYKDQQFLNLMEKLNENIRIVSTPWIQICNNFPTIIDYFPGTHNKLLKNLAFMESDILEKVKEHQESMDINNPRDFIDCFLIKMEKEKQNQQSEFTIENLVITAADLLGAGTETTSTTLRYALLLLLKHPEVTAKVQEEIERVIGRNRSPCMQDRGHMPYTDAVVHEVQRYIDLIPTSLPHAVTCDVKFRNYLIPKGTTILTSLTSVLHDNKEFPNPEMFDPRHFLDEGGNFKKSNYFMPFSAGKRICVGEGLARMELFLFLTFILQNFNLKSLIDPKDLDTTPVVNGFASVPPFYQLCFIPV

Row | IC50 (CYP1A2) | IC50 (CYP2C9) | IC50 CYP3A4 (7BQ) (CYP3A4; substrate 7BQ) | IC50 (CYP3A4; substrate 7BQ, read-out: IC50 CYP3A4 (7BQ)) | IC50 CYP3A4 (DEF) (CYP3A4; substrate DEF) | IC50 (CYP3A4; substrate DEF, read-out: IC50 CYP3A4 (DEF)) | IC50 (CYP2D6) | IC50 (CYP2C19) | Compound | Depletion of circulating SAP (SAP [1]) | Oral bioavailability [2] | CSF SAP concentration after depletion (SAP [3]; from 2-30 μg/L) | Plasma SAP after depletion (SAP [3]; from the normal 20-50 mg/L)
1 |  |  |  |  |  |  |  |  | O=C(O)[C@H]1CCCN1C(=O)CCCCC(=O)N1CCC[C@@H]1C(=O)O [CPHPC, (R)-1-[6-[(R)-2-carboxy-pyrrolidin-1-yl]-6-oxo-hexanoyl]pyrrolidine-2-carboxylic acid] | almost complete depletion | 3-5% | < 0.1 µg/L | < 0.1 mg/L
2 | > 33 µM | 26 µM | significant inhibition | 5.5 µM | significant inhibition | 1.1 µM | > 33 µM | > 33 µM | CC(OC(=O)[C@H]1CCCN1C(=O)CCCCC(=O)N1CCC[C@@H]1C(=O)OC(C)OC(=O)C(C)(C)C)OC(=O)C(C)(C)C (stereo partly drawn) [Comparator Compound, (2R,2′R)-bis(1-(pivaloyloxy)ethyl) 1,1′-adipoylbis(pyrrolidine-2-carboxylate), reference compound] |  |  |  | 
